This note sets out measurements from patent publication US20250136578A1 (Kolm Therapeutics Inc., priority 2023, published 2025).

Bounds are passed on as bounds.

Broadly, the IC50 is the concentration that inhibits the measured activity by half. Low readings indicate greater potency in that assay, high ones weaker potency in that assay.

AR / CBP ternary complex, sequence (P10275 whole entry): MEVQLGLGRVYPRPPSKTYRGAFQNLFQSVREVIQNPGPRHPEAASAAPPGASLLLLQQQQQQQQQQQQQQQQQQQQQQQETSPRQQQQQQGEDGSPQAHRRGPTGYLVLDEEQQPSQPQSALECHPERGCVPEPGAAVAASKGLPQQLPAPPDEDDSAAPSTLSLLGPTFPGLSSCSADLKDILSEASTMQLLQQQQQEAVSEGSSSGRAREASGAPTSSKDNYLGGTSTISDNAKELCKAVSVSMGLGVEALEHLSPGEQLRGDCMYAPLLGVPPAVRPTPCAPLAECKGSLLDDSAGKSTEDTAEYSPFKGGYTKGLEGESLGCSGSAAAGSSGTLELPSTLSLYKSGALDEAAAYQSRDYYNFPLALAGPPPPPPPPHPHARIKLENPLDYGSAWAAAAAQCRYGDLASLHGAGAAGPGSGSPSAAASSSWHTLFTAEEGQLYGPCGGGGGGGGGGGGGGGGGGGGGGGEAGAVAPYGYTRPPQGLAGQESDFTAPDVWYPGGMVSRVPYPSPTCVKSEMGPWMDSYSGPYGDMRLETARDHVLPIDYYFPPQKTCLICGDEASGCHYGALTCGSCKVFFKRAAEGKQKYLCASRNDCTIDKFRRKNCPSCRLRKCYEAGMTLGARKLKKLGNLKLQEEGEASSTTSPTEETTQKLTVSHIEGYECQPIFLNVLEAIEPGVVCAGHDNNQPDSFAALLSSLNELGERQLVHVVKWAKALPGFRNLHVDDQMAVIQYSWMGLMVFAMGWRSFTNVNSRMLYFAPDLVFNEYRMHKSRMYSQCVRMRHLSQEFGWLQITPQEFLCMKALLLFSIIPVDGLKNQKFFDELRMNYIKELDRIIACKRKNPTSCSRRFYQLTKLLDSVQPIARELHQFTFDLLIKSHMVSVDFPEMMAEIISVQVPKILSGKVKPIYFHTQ
AR / CBP ternary complex, sequence (Q92793 2-2442): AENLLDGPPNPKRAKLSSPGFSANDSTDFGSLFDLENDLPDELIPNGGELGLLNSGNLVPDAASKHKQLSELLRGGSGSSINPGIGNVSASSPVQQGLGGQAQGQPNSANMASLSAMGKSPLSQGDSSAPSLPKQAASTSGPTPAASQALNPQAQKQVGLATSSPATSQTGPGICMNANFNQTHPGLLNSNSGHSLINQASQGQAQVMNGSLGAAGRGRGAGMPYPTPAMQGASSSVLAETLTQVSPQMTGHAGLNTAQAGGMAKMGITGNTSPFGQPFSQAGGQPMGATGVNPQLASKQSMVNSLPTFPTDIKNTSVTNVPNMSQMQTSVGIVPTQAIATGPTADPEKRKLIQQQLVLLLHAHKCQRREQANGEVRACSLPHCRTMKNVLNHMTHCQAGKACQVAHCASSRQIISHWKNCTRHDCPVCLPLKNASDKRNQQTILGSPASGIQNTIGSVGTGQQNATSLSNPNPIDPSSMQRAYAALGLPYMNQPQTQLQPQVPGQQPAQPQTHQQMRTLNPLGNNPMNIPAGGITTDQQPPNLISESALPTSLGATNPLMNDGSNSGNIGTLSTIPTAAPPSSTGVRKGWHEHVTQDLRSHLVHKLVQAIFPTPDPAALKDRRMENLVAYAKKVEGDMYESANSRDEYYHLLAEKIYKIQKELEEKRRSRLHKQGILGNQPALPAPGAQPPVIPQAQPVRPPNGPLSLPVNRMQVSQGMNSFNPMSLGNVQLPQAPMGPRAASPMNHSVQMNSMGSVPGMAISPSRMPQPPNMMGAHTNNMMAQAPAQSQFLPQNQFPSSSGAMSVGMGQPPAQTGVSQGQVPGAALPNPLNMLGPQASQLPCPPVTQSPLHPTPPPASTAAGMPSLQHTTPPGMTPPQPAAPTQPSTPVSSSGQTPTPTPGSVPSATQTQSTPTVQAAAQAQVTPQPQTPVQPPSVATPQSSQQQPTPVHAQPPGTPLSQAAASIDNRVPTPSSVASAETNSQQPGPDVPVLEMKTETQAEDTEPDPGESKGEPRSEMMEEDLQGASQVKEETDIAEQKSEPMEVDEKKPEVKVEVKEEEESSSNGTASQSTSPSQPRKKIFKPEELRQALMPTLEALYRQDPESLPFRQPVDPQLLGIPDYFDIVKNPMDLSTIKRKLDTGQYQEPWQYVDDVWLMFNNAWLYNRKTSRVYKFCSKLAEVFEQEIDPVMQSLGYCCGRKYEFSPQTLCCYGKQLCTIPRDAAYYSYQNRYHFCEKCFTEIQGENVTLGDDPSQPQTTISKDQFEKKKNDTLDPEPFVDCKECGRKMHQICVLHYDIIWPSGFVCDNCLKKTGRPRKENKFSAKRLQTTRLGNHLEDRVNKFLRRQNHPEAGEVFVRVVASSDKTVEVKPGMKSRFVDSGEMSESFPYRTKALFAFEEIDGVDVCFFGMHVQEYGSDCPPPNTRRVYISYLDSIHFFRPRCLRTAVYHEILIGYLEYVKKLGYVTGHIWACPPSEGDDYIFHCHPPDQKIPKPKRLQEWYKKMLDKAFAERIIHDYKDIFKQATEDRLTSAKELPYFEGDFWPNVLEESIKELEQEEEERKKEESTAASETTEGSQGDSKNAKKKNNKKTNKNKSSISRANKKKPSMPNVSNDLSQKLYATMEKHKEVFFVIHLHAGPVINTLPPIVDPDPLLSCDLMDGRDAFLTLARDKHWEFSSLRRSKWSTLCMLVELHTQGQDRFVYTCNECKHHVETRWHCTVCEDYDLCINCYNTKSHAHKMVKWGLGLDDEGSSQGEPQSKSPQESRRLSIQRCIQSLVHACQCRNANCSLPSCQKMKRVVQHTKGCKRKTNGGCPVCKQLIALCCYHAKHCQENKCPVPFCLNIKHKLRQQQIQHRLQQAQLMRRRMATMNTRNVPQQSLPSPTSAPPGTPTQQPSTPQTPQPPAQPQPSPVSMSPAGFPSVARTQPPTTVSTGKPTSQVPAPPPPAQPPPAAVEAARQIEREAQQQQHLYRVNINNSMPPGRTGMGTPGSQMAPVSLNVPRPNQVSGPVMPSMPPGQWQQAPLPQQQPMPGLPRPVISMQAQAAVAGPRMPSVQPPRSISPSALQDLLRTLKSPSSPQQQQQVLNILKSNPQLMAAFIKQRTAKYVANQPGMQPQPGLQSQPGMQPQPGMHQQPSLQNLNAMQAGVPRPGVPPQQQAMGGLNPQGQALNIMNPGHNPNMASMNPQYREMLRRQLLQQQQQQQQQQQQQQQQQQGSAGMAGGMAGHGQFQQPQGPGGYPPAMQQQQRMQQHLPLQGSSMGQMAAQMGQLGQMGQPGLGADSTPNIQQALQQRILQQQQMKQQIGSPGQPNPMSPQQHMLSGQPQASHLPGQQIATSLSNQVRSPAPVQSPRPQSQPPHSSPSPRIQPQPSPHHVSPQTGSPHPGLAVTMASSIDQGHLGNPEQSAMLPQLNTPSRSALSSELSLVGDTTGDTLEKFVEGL

For one assay, the target named is AR / CBP ternary complex (Homo sapiens, UniProt P10275+Q92793). The assay can be described thus: Ternary complex formation assay (sandwich ELISA, AR capture, CBP antibody detection) in VCaP cell lysates. The class given is cell-based. To be noted: treated 1.5 hours, rabbit CBP or p300 antibody detection, average, read-out: Average Ternary Complex. The procedure:
Black MaxiSorp plates: coat with 50 μL of mouse 1/50 diluted AR antibody (Monoclonal Antibody (AR 441 from Thermo Fisher); diluted in phosphate buffered saline (PBS). Spin the liquid to the bottom of the wells, if necessary. Incubate overnight at 4° C. Next day, wash 3 times with 200 μL of TBST. Block with 200 μL of blocking buffer (5% BSA in TBST) at room temperature for 2 hours (BSA: A4503 or A2153 from Sigma). Wash plates 3 times with TBST. Plates are ready for lysates Preparation of dimerizer treated lysates
Culture cells in 96 wells at 50K VCaP cells/well for at least 3 days. Plate in 5% Omega charcoal stripped FBS in total volume of 200 uL. Treat with bifunctional for 1.5 hours by adding 1 μL of 200× stock in DMSO. Aspirate media/compound. Add and pipet-to-mix 70 μL of 1× AlphaLisa Lysis Buffer to each well (Perkin Elmer, AlphaLISA SureFire Ultra, diluted in water). Pipet up and down when adding lysis buffer to disrupt cells. Let lysis proceed for 30 min at 4° C.
Incubate for 1 hour at room temperature. Flick out the lysates. Wash 3 times with TBST. Add 75 μL of rabbit CBP or p300 antibody to each well (diluted 1:5000 in blocking buffer (5% BSA in TBST). CBP antibody: (D6C5) Rabbit mAb #7389; p300 antibody: (D8Z4E) Rabbit mAb #86377. Incubate overnight at 4° C. Wash 3 times with 300 uL TBST, each time on shaker for 5-10 min. Prepare goat anti-rabbit antibody conjugated to HRP (1/100K dilution in blocking buffer) Invitrogen Catalog number: 32260. Add 75 μL of HRP-conjugated goat anti-rabbit antibody. Incubate at room temperature for 1 hour. Flick out the HRP-antibody mixture. Wash 7-8 times with TBST, each time on shaker for 10 min. Later washes try to overflow the wells so that no residual HRP remains bound to the sides of the well. Prepare and add 75 uL/well of QuantaRed Enhance Chemifluorescent HRP Substrate solution. Immediately read fluorescence on BMG ClarioStar (ex: 570/em 585), and repeat the read in 5 minutes and 15 minutes.
A general note: An ELISA detects its analyte on a solid surface through an enzyme-linked reagent.
For the compound `CC(=O)N1CCc2c(c(N3CCCc4cc(-c5cscn5)c(C(F)F)cc43)nn2C2CCN([C@H]3CCCN(c4ccc(C(=O)N[C@H]5CC[C@H](Oc6ccc(C#N)c(Cl)c6)CC5)nn4)C3)CC2)C1` [Compound 260, 6-[(3S)-3-[4-[5-acetyl-3-[7-(difluoromethyl)-6-thiazol-4-yl-3,4-dihydro-2H-quinolin-1-yl]-6,7-dihydro-4H-pyrazolo[4,3-c]pyridin-1-yl]-1-piperidyl]-1-piperidyl]-N-[4-(3-chloro-4-cyano-phenoxy)cyclohexyl]pyridazine-3-carboxamide], the EC50 is 1 to 10 nM.

With `CC(=O)N1CCc2c(c(N3CCCc4cc(-c5cnn(C)c5)c(C(F)F)cc43)nn2[C@H]2CC[C@]3(CCN(c4ccc(C(=O)N[C@H]5CC[C@H](Oc6ccc(C#N)c(Cl)c6)CC5)nn4)C3)CC2)C1` [Compound 264, 6-[8-[5-acetyl-3-[7-(difluoromethyl)-6-(1-methylpyrazol-4-yl)-3,4-dihydro-2H-quinolin-1-yl]-6,7-dihydro-4H-pyrazolo[4,3-c]pyridin-1-yl]-2-azaspiro[4.5]decan-2-yl]-N-[4-(3-chloro-4-cyano-phenoxy)cyclohexyl]pyridazine-3-carboxamide], the EC50 was more than 100 nM.

As to `CC(=O)N1CCc2c(c(N3CCCc4cc(-c5cnn(C)c5)c(C(F)F)cc43)nn2[C@H]2CC[C@@]3(CCN(c4ccc(C(=O)N[C@H]5CC[C@H](Oc6ccc(C#N)c(Cl)c6)CC5)nn4)C3)CC2)C1` [Compound 265, 6-[8-[5-acetyl-3-[7-(difluoromethyl)-6-(1-methylpyrazol-4-yl)-3,4-dihydro-2H-quinolin-1-yl]-6,7-dihydro-4H-pyrazolo[4,3-c]pyridin-1-yl]-2-azaspiro[4.5]decan-2-yl]-N-[4-(3-chloro-4-cyano-phenoxy)cyclohexyl]pyridazine-3-carboxamide], the EC50 was less than 1 nM.

With `CC(=O)N1CCc2c(c(N3CCCc4cc(-c5cnn(C)c5)c(C(F)F)cc43)nn2[C@H]2CC[C@]3(CCCN(c4ccc(C(=O)N[C@H]5CC[C@H](Oc6ccc(C#N)c(Cl)c6)CC5)nn4)C3)CC2)C1` [Compound 266], the EC50 was more than 100 nM.

Regarding `CC(=O)N1CCc2c(c(N3CCCc4cc(-c5cnn(C)c5)c(C(F)F)cc43)nn2[C@H]2CC[C@@]3(CCCN(C4CN(c5ccc(C(=O)N[C@H]6CC[C@H](Oc7ccc(C#N)c(Cl)c7)CC6)nn5)C4)C3)CC2)C1` [Compound 269, 6-[3-[9-[5-acetyl-3-[7-(difluoromethyl)-6-(1-methylpyrazol-4-yl)-3,4-dihydro-2H-quinolin-1-yl]-6,7-dihydro-4Hpyrazolo[4,3-c]pyridin-1-yl]-2-azaspiro[5.5]undecan-2-yl]azetidin-1-yl]-N-[4-(3-chloro-4-cyanophenoxy)cyclohexyl]pyridazine-3-carboxamide], the EC50 is less than 1 nM.

Turning to `CC(=O)N1CCc2c(c(N3CCCc4cc(-c5ccn(C)n5)c(C(F)F)cc43)nn2C2CCC3(CC2)CC(Oc2ccc(C(=O)N[C@H]4CC[C@H](Oc5ccc(C#N)c(Cl)c5)CC4)nn2)C3)C1` (stereo partly shown) [Compound 275], the EC50 is less than 1 nM.

`CC(=O)N1CCc2c(c(N3CCCc4cc(C#N)c(C)cc43)nn2C2CCN(C[C@H]3[C@H](C)CN(c4ccc(C(=O)N[C@H]5CC[C@H](Oc6ccc(C#N)c(Cl)c6)CC5)nn4)C[C@@H]3C)CC2)C1` [Compound 285]: the EC50 was less than 1 nM.

On to `CC(=O)N1CCc2c(c(N3CCCc4cc(-c5cnn(C)c5)c(C(F)F)cc43)nn2C2CCN(CC3C(C)CN(c4ccc(C(=O)N[C@H]5CC[C@H](Oc6ccc(C#N)c(C(F)(F)F)c6)CC5)nn4)CC3C)CC2)C1` (stereo partly shown) [Compound 290, 6-[4-[[4-[5-acetyl-3-[7-(difluoromethyl)-6-(1-methylpyrazol-4-yl)-3,4-dihydro-2H-quinolin-1-yl]-6,7-dihydro-4H-pyrazolo[4,3-c]pyridin-1-yl]-1-piperidyl]methyl]-3,5-dimethyl-1-piperidyl]-N-[4-[4-cyano-3-(trifluoromethyl)phenoxy]cyclohexyl]pyridazine-3-carboxamide], for which the EC50 is less than 1 nM.

For the compound `CC(=O)N1CCc2c(c(N3CCCc4cc(-c5cnn(C)c5)c(C)cc43)nn2C2CCN(CC3CCN(c4ccc(C(=O)N[C@H]5CC[C@H](Oc6ccc(C#N)c(C(F)(F)F)c6)CC5)nn4)CC3(C)C)CC2)C1` (stereo partly shown) [Compound 294], the EC50 is less than 1 nM.

Take `CC(=O)N1CCc2c(c(N3CCCc4cc(-c5cnn(C)c5)c(C)cc43)nn2C2CCN(C3CCC4(CC3)CN(c3ccc(C(=O)N[C@H]5CC[C@H](Oc6ccc(C#N)c(Cl)c6)CC5)nn3)C4)CC2)C1` [Compound 295]: the EC50 is less than 1 nM.

As to `COc1cc(O[C@H]2CC[C@H](NC(=O)c3ccc(N4CC5(CCC(N6CCC(n7nc(N8CCCc9cc(-c%10cnn(C)c%10)c(C)cc98)c8c7CCN(C(C)=O)C8)CC6)CC5)C4)nn3)CC2)ccc1C#N` [Compound 296, 6-[7-[4-[5-acetyl-3-[7-methyl-6-(1-methylpyrazol-4-yl)-3,4-dihydro-2H-quinolin-1-yl]-6,7-dihydro-4H-pyrazolo[4,3-c]pyridin-1-yl]-1-piperidyl]-2-azaspiro [3.5]nonan-2-yl]-N-[4-(4-cyano-3-methoxy-phenoxy)cyclohexyl] pyridazine-3-carboxamide], the EC50 is less than 1 nM.

As to `CC(=O)N1CCc2c(c(N3CCCc4cc(-c5cnn(C)c5)c(C)cc43)nn2C2CCN(C3CCC4(CC3)CN(c3ccc(C(=O)N[C@H]5CC[C@H](Oc6ccc(C#N)c(C(F)(F)F)c6)CC5)nn3)C4)CC2)C1` [Compound 297], the EC50 is more than 100 nM.

In the next assay the test system is VCaP cells. As to the kind of experiment: VCaP growth inhibition assay (CTG). To be noted: Homo sapiens, 216 h, 30 pM R1881, 9 days. It is filed as cell-based. The procedure: VCaP cells (ATCC Cat #CRL-2876) are plated at 1×10^4 cells per well of a white plastic 96-well cluster plate (Thermo Scientific Nunc Cat #165306) in 100 uL phenol red-free DMEM (Gibco Cat #21063-029) media with 5% CSS (Omega Scientific Cat #FB-04). Cluster plates are returned to the incubator (37*C/5% CO2) for 72 hours prior to treatment. Just prior to treatment, 100 uL of phenol red-free DMEM/5% CSS and 60 pM R1881 (Sigma Cat #R0908-10 mg) was added to each well of the cluster plates (Final R1881 concentration=30 pM). Compounds (200X) were added to each well in a volume of 1 uL, with serial dilutions (1:5) from 20 uM to 2 pM (final concentrations in well are 100 nM to 10 fM). Cluster plates are returned to the incubator for 9 days.
After the 9-day treatment period, media was removed from the cluster plates by inversion and 100 uL room temperature CTG reagent (Promega Cat #G7573) is added to each well. The cluster plates are placed on a shaker and incubated at room temperature for 20 minutes. Following this shaking/incubation, cluster plates are read on a luminometer (BMG ClarioStar). IC50 values are obtained by graphing the RLU data vs. compound concentration with nonlinear regression 4-parameter logistic curves (GraphPad Prism).
`CC(=O)N1CCc2c(c(-c3cccc4cc(-c5cnn(CC6CCN(c7ccc(C(=O)N[C@H]8CC[C@H](Oc9ccc(C#N)c(Cl)c9)CC8)nn7)CC6)c5)ncc34)nn2C)C1` [Compound 7, 6-[4-[[4-[8-(5-acetyl-1-methyl-6,7-dihydro-4H-pyrazolo[4,3-c]pyridin-3-yl)-3-isoquinolyl]pyrazol-1-yl]methyl]-1-piperidyl]-N-[4-(3-chloro-4-cyano-phenoxy)cyclohexyl]pyridazine-3-carboxamide] had a half-inhibitory concentration (IC50) not above 0.1 nM.

Compound `CC(=O)N1CCc2c(c(Nc3ccc(-c4cnn(C)c4)cc3F)nn2C2CCN(CCC3CCN(c4ncc(C(=O)N[C@H]5CC[C@H](Oc6ccc(C#N)c(Cl)c6)CC5)cn4)CC3)CC2)C1` [Compound 10, 2-[4-[2-[4-[5-acetyl-3-[2-fluoro-4-(1-methylpyrazol-4-yl)anilino]-6,7-dihydro-4H-pyrazolo[4,3-c]pyridin-1-yl]-1-piperidyl]ethyl]-1-piperidyl]-N-[4-(3-chloro-4-cyano-phenoxy)cyclohexyl]pyrimidine-5-carboxamide] displayed an IC50 of 0.1 to 1 nM.

Consider `COC1(CN2CCC(n3nc(N4CCCc5cc(-c6cnn(C)c6)c(C(F)F)cc54)c4c3CCN(C(C)=O)C4)CC2)CCN(c2ccc(C(=O)N[C@H]3CC[C@H](Oc4ccc(C#N)c(Cl)c4)CC3)nn2)CC1` [Compound 177, 6-[4-[[4-[5-acetyl-3-[7-(difluoromethyl)-6-(1-methylpyrazol-4-yl)-3,4-dihydro-2H-quinolin-1-yl]-6,7-dihydro-4H-pyrazolo [4,3-c]pyridin-1-yl]-1-piperidyl]methyl]-4-methoxy-1-piperidyl]-N-[4-(3-chloro-4-cyano-phenoxy)cyclohexyl]pyridazine-3-carboxamide], for which the IC50 is not above 0.1 nM.

The compound `CC(=O)N1CCc2c(c(-c3cccc4cc(-c5ccc(N6CCC7(CC6)CCN(c6ccc(C(=O)N[C@H]8CC[C@H](Oc9ccc(C#N)c(Cl)c9)CC8)nn6)CC7)nc5)ncc34)nn2C2CCOCC2)C1` [Compound 179, 6-[9-[5-[8-(5-acetyl-1-tetrahydropyran-4-yl-6,7-dihydro-4H-pyrazolo[4,3-c]pyridin-3-yl)-3-isoquinolyl]-2-pyridyl]-3,9-diazaspiro[5.5]undecan-3-yl]-N-[4-(3-chloro-4-cyano-phenoxy)cyclohexyl]pyridazine-3-carboxamide] came in with a 50% inhibitory concentration (IC50) of 0.1 to 1 nM.
